In one assay the test system is S. Aureus UC ® 9213. Put plainly: In vitro minimum inhibitory concentration (MIC) by agar dilution, gram-positive bacteria (Table 1). Type of assay: cell-based. As to conditions: Staphylococcus aureus, UC9213. The source says:
(§1) The oxazolidinone antibacterial agents of this invention have useful activity against a variety of microorganisms. The in vitro activity of compounds of this invention can be assessed by standard testing procedures such as the determination of minimum inhibitory concentration (MIC) by agar dilution as described in "Methods for Dilution Antimicrobial Susceptibility Tests for Bacteria That Grow Aerobically" (MFT) published January 1983 by the National Committee for Clinical Laboratory Standards, 771 East Lancaster Avenue, Villanova, Pa. 19084, USA. The activity of selected compounds of this invention against Staphylococcus aureus and Streptococcus pneumoniae are shown in Table 1.

In the next assay the test system is S. pneumoniae UC ® 9912. The assay is described as above. Type of assay: cell-based. As to conditions: Streptococcus pneumoniae, UC9912.
Source text: as §1

Values after ≈ are worked out from the molar mass of the structure shown. A value given as a limit tells only on which side of the number the result lay.

One may read the MIC as the least concentration at which growth counts as inhibited.

For the compound `CC(=O)NC[C@H]1CN(c2ccc(-c3nnc(C(N)=O)s3)c(F)c2)C(=O)O1` [Example 2, (S)-5-[4-[5-[(Acetylamino)methyl]-2-oxo-3-oxazolidinyl]-2-fluorophenyl]-1,3,4-thiadiazole-2-carboxamide], the MIC came out at 0.5 mg/L (≈ 1.32 µM) against S. Aureus UC ® 9213 and 0.25 mg/L (≈ 0.659 µM) against S. pneumoniae UC ® 9912.
As to `CCCc1nnc(-c2ccc(N3C[C@H](CNC(C)=O)OC3=O)cc2F)s1` [Example 5, (S)-N-[[3-[3-Fluoro-4-(5-propyl-1,3,4-thiadiazol-2-yl)phenyl]-2-oxo-5-oxazolidinyl]methyl]acetamide], the MIC turned out to be 1 mg/L (≈ 2.64 µM) in the assay with S. Aureus UC ® 9213 and 0.25 mg/L (≈ 0.661 µM) in the assay on S. pneumoniae UC ® 9912.
The corresponding values for `COCc1nnc(-c2ccc(N3C[C@H](CNC(C)=O)OC3=O)cc2F)s1` [Example 12, (S)-N-[[3-[3-Fluoro-4-[5-(methoxymethyl)-1,3,4-thiadiazol-2-yl]phenyl]-2-oxo-5-oxazolidinyl]methyl]acetamide] are 2 mg/L (≈ 5.26 µM) and 0.25 mg/L (≈ 0.657 µM).
For `CC(=O)NC[C@H]1CN(c2ccc(-c3nnc(C(F)(F)F)s3)c(F)c2)C(=O)O1` [Example 15, (S)-N-[[3-[3-Fluoro-4-[5-(trifluoromethyl)-1,3,4-thiadiazol-2-yl]phenyl]-2-oxo-5-oxazolidinyl]methyl]acetamide], the MIC was found to be 2 mg/L (≈ 4.95 µM) in the assay on S. Aureus UC ® 9213 and 0.5 mg/L (≈ 1.24 µM) in the assay on S. pneumoniae UC ® 9912.
The matching figures for `CC(=O)NC[C@H]1CN(c2ccc(-c3nnc(CCC(C)O)s3)c(F)c2)C(=O)O1` (stereo partly drawn) [Example 17, (5S)-N-[[3-[3-Fluoro-4-[5-(3-hydroxybutyl)-1,3,4-thiadiazol-2-yl]phenyl]-2-oxo-5-oxazolidinyl]methyl]acetamide]: 2 mg/L (≈ 4.9 µM) and 0.25 mg/L (≈ 0.612 µM).
The matching figures for `COC(=O)CCc1nnc(-c2ccc(N3C[C@H](CNC(C)=O)OC3=O)cc2F)s1` [Example 18, (S)-Methyl 5-[4-[5-[(acetylamino)methyl]-2-oxo-3-oxazolidinyl]-2-fluorophenyl]-1,3,4-thiadiazole-2-propanoate]: 2 mg/L (≈ 4.73 µM) and 0.25 mg/L (≈ 0.592 µM).
The matching figures for `CC(=O)NC[C@H]1CN(c2ccc(-c3nnc(CCC(N)=O)s3)c(F)c2)C(=O)O1` [Example 19, (S)-5-[4-[5-[(Acetylamino)methyl]-2-oxo-3-oxazolidinyl]-2-fluorophenyl]-1,3,4-thiadiazole-2-propanamide]: 8 mg/L (≈ 19.6 µM) and less than 0.125 mg/L.
As to `CSCc1nnc(-c2ccc(N3C[C@H](CNC(C)=O)OC3=O)cc2F)s1` [Example 21, (S)-N-[[3-[3-Fluoro-4-[5-[(methylthio)methyl]-1,3,4-thiadiazol-2-yl]phenyl]-2-oxo-5-oxazolidinyl]methyl]acetamide], the MIC was 1 mg/L (≈ 2.52 µM) against S. Aureus UC ® 9213 and 0.25 mg/L (≈ 0.631 µM) against S. pneumoniae UC ® 9912.
As for `CC(=O)NC[C@H]1CN(c2ccc(-c3nnc(C[S+](C)[O-])s3)c(F)c2)C(=O)O1` (stereo partly drawn) [Example 22, (S)-N-[[3-[3-Fluoro-4-[5-[(methylsulfinyl)methyl]-1,3,4-thiadiazol-2-yl]phenyl]-2-oxo-5-oxazolidinyl]methyl]acetamide], the MIC with S. Aureus UC ® 9213 is 8 mg/L (≈ 19.4 µM); in the assay on S. pneumoniae UC ® 9912 it was 0.25 mg/L (≈ 0.606 µM).
With `CSCCc1nnc(-c2ccc(N3C[C@H](CNC(C)=O)OC3=O)cc2F)s1` [Example 23, (S)-N-[[3-[3-Fluoro-4-[5-[2-(methylthio)ethyl]-1,3,4-thiadiazol-2-yl]phenyl]-2-oxo-5-oxazolidinyl]methyl]acetamide], the MIC against S. Aureus UC ® 9213 amounted to 1 mg/L (≈ 2.44 µM); with S. pneumoniae UC ® 9912, 0.25 mg/L (≈ 0.609 µM).
The matching figures for `CCOC(=O)Cc1nnc(-c2ccc(N3C[C@H](CNC(C)=O)OC3=O)cc2F)s1` [Example 25, (S)-Ethyl 5-[4-[5-[(acetylamino)methyl]-2-oxo-3-oxazolidinyl]-2-fluorophenyl]-1,3,4-thiadiazole-2-acetate]: 2 mg/L (≈ 4.73 µM) and 0.25 mg/L (≈ 0.592 µM).
`CCOC(=O)c1nnc(-c2ccc(N3C[C@H](CNC(C)=O)OC3=O)cc2F)s1` [Example 27, (S)-Ethyl 5-[4-[5-[(acetylamino)methyl]-2-oxo-3-oxazolidinyl]-2-fluorophenyl]-1,3,4-thiadiazole-2-carboxylate]: the results for the minimal inhibitory concentration (MIC) against S. Aureus UC ® 9213 and against S. pneumoniae UC ® 9912 were 8 mg/L (≈ 19.6 µM) and less than 0.125 mg/L, respectively.
The corresponding values for `CC(=O)NC[C@H]1CN(c2ccc(-c3nnc(CC(C)O)s3)c(F)c2)C(=O)O1` (stereo partly drawn) [Example 28, (5S)-N-[[3-[3-Fluoro-4-[5-(2-hydroxypropyl)-1,3,4-thiadiazol-2-yl]phenyl]-2-oxo-5-oxazolidinyl]methyl]acetamide] are 2 mg/L (≈ 5.07 µM) and 0.25 mg/L (≈ 0.634 µM).
The corresponding values for `CC(=O)NC[C@H]1CN(c2ccc(-c3nnc(N)s3)c(F)c2)C(=O)O1` [Example 30, (S)-N-[[3-[4-(5-Amino-1,3,4-thiadiazol-2-yl)-3-fluorophenyl]-2-oxo-5-oxazolidinyl]methyl]acetamide] are 4 mg/L (≈ 11.4 µM) and 0.25 mg/L (≈ 0.712 µM).
Consider `CC(=O)NC[C@H]1CN(c2ccc(-c3nsc(C(N)=O)n3)c(F)c2)C(=O)O1` [Example 33, (S)-3-[4-[5-[(Acetylamino)methyl]-2-oxo-3-oxazolidinyl]-2-fluorophenyl]-1,2,4-thiadiazole-5-carboxamide], for which the minimal inhibitory concentration (MIC) in the assay with S. Aureus UC ® 9213 amounted to 16 mg/L (≈ 42.2 µM); in the assay with S. pneumoniae UC ® 9912, 2 mg/L (≈ 5.27 µM).
The matching figures for `CC(=O)NC[C@H]1CN(c2ccc(-c3ncns3)c(F)c2)C(=O)O1` [Example 34, (S)-N-[[3-[3-Fluoro-4-(1,2,4-thiadiazol-5-yl)phenyl]-2-oxo-5-oxazolidinyl]methyl]acetamide]: 1 mg/L (≈ 2.97 µM) and 0.25 mg/L (≈ 0.743 µM).
The matching figures for `CC(=O)NC[C@H]1CN(c2ccc(-c3noc(C)n3)c(F)c2)C(=O)O1` [Example 35, (S)-N-[[3-[3-Fluoro-4-(5-methyl-1,2,4-oxadiazol-3-yl)phenyl]-2-oxo-5-oxazolidinyl]methyl]acetamide]: 16 mg/L (≈ 47.9 µM) and 4 mg/L (≈ 12 µM).
The matching figures for `CC(=O)NC[C@H]1CN(c2ccc(-c3ncon3)c(F)c2)C(=O)O1` [Example 36, (S)-N-[[3-[3-Fluoro-4-(1,2,4-oxadiazol-3-yl)phenyl]-2-oxo-5-oxazolidinyl]methyl]acetamide]: 4 mg/L (≈ 12.5 µM) and 1 mg/L (≈ 3.12 µM).
With `CC(=O)NC[C@H]1CN(c2ccc(-c3noc(C(N)=O)n3)c(F)c2)C(=O)O1` [Example 37, (S)-3-[4-[5-[(Acetylamino)methyl]-2-oxo-3-oxazolidinyl]-2-fluorophenyl]-1,2,4-oxadiazole-5-carboxamide], the MIC against S. Aureus UC ® 9213 is greater than 16 mg/L; in the assay on S. pneumoniae UC ® 9912 it was 1 mg/L (≈ 2.75 µM).
The corresponding values for `CC(=O)NC[C@H]1CN(c2ccc(-c3noc(C#N)n3)c(F)c2)C(=O)O1` [Example 38, (S)-N-[[3-[4-(5-Cyano-1,2,4-oxadiazol-3-yl)-3-fluorophenyl]-2-oxo-5-oxazolidinyl]methyl]acetamide] are greater than 16 mg/L and 2 mg/L (≈ 5.79 µM).
The corresponding values for `CC(=O)NC[C@H]1CN(c2ccc(-c3noc(C(F)(F)F)n3)c(F)c2)C(=O)O1` [Example 39, (S)-N-[[3-[3-Fluoro-4-[5-(trifluoromethyl)-1,2,4-oxadiazol-3-yl]phenyl]-2-oxo-5-oxazolidinyl]methyl]acetamide] are 16 mg/L (≈ 41.2 µM) and 8 mg/L (≈ 20.6 µM).
The matching figures for `CC(=O)NC[C@H]1CN(c2ccc(-c3ncno3)c(F)c2)C(=O)O1` [Example 40, (S)-N-[[3-[3-Fluoro-4-(1,2,4-oxadiazol-5-yl)phenyl]-2-oxo-5-oxazolidinyl]methyl]acetamide]: 2 mg/L (≈ 6.24 µM) and 0.5 mg/L (≈ 1.56 µM).
For the compound `CC(=O)NC[C@H]1CN(c2ccc(-c3nnc(NC=O)s3)c(F)c2)C(=O)O1` [Example 41, (S)-N-[[3-[3-Fluoro-4-[5-(formylamino)-1,3,4-thiadiazol-2-yl]phenyl]-2-oxo-5-oxazolidinyl]methyl]acetamide], the MIC stood at 4 mg/L (≈ 10.5 µM) in the assay with S. Aureus UC ® 9213 and 0.5 mg/L (≈ 1.32 µM) against S. pneumoniae UC ® 9912.
The matching figures for `CC(=O)NC[C@H]1CN(c2ccc(-c3nnc(CCCl)s3)c(F)c2)C(=O)O1` [Example 42, (S)-N-[[3-[4-[5-(2-Chloroethyl)-1,3,4-thiadiazol-2-yl]-3-fluorophenyl]-2-oxo-5-oxazolidinyl]methyl]acetamide]: 1 mg/L (≈ 2.51 µM) and less than 0.125 mg/L.
For the compound `C/C=C/c1nnc(-c2ccc(N3C[C@H](CNC(C)=O)OC3=O)cc2F)s1` [Example 43, (S)-N-[[3-[3-Fluoro-4-[5-(1-propenyl)-1,3,4-thiadiazol-2-yl]phenyl]-2-oxo-5-oxazolidinyl]methyl]acetamide], the figures for the minimum inhibitory concentration (MIC) against S. Aureus UC ® 9213 and in the assay with S. pneumoniae UC ® 9912 were 2 mg/L (≈ 5.31 µM) and 0.5 mg/L (≈ 1.33 µM), respectively.
The matching figures for `CC(=O)NC[C@H]1CN(c2ccc(-c3nnc(CCN)s3)c(F)c2)C(=O)O1` [Example 44, (S)-N-[[3-[4-[5-(2-Aminoethyl)-1,3,4-thiadiazol-2-yl]-3-fluorophenyl]-2-oxo-5-oxazolidinyl]methyl]acetamide]: greater than 16 mg/L and 0.25 mg/L (≈ 0.659 µM).
The corresponding values for `CC(=O)NCCc1nnc(-c2ccc(N3C[C@H](CNC(C)=O)OC3=O)cc2F)s1` [Example 45, (S)-N-[[3-[4-[5-[2-(Acetylamino)ethyl]-1,3,4-thiadiazol-2-yl]-3-fluorophenyl]-2-oxo-5-oxazolidinyl]methyl]acetamide] are 16 mg/L (≈ 38 µM) and 0.5 mg/L (≈ 1.19 µM).
The corresponding values for `CC(=O)NC[C@H]1CN(c2ccc(-c3nnc(CCNS(C)(=O)=O)s3)c(F)c2)C(=O)O1` [Example 46, (S)-N-[[3-[3-Fluoro-4-[5-[2-[(methylsulfonyl)amino]ethyl]-1,3,4-thiadiazol-2-yl]phenyl]-2-oxo-5-oxazolidinyl]methyl]acetamide] are 16 mg/L (≈ 35 µM) and 0.5 mg/L (≈ 1.09 µM).
For `CC(=O)NC[C@H]1CN(c2ccc(-c3nnc(C(C)C)s3)c(F)c2)C(=O)O1` [Example 48, (S)-N-[[3-[3-Fluoro-4-[5-(1-methylethyl)-1,3,4-thiadiazol-2-yl]phenyl]-2-oxo-5-oxazolidinyl]methyl]acetamide], the results for the MIC in the assay on S. Aureus UC ® 9213 and with S. pneumoniae UC ® 9912 were 1 mg/L (≈ 2.64 µM) and 0.25 mg/L (≈ 0.661 µM), respectively.

These data come from US5977373A, “Thiadiazolyl and oxadiazolyl phenyl oxazolidinone antibacterial agents” (Pharmacia & Upjohn Company, priority 1998, dated 1999).
